# Laboratory results: ChEMBL document CHEMBL1138985, “Discovery of potent, selective, and orally bioavailable pyridone-based dipeptidyl peptidase-4 inhibitors” (Bioorg Med Chem Lett, 2006)
# Test system: not listed separately
# Assay: Plasma clearance in dog at 1 mg/kg, iv or 2 mg/kg, po
# Format: ADME, organism-based, Canis lupus familiaris
# Details: not given
row,clearance [mL/min/kg],Structure (SMILES)
1,4.7,C[C@@H](c1ccc(-c2ccc(=O)n(C)c2)cc1)[C@H](N)C(=O)N1CC[C@H](F)C1.O=C(O)C(F)(F)F

# Test system: not listed separately
# Assay: Plasma clearance in rat at 1 mg/kg, iv or 2 mg/kg, po
# Format: ADME, organism-based
# Details: not given
row,clearance [mL/min/kg],Structure (SMILES)
1,68.1,C[C@@H](c1ccc(-c2cn(C)c(=O)cc2CO)cc1)[C@H](N)C(=O)N1CC[C@H](F)C1.O=C(O)C(F)(F)F
2,11.2,C[C@@H](c1ccc(-c2ccc(=O)n(C)c2F)cc1)[C@H](N)C(=O)N1CC[C@H](F)C1.O=C(O)C(F)(F)F
3,7.7,C[C@@H](c1ccc(-c2ccc(=O)n(C)c2)cc1)[C@H](N)C(=O)N1CC[C@H](F)C1.O=C(O)C(F)(F)F
4,35.8,C[C@@H](c1ccc(-c2ccc(O)nc2)cc1)[C@H](N)C(=O)N1CC[C@H](F)C1.O=C(O)C(F)(F)F

# Test system: not listed separately
# Assay: Half life in rat at 1 mg/kg, iv or 2 mg/kg, po
# Format: ADME, organism-based
# Details: in vivo
row,half-life [h],Structure (SMILES)
1,2.6,C[C@@H](c1ccc(-c2cn(C)c(=O)cc2CO)cc1)[C@H](N)C(=O)N1CC[C@H](F)C1.O=C(O)C(F)(F)F
2,1.1,C[C@@H](c1ccc(-c2ccc(=O)n(C)c2F)cc1)[C@H](N)C(=O)N1CC[C@H](F)C1.O=C(O)C(F)(F)F
3,1.4,C[C@@H](c1ccc(-c2ccc(=O)n(C)c2)cc1)[C@H](N)C(=O)N1CC[C@H](F)C1.O=C(O)C(F)(F)F
4,1.9,C[C@@H](c1ccc(-c2ccc(O)nc2)cc1)[C@H](N)C(=O)N1CC[C@H](F)C1.O=C(O)C(F)(F)F

# Test system: not listed separately
# Assay: Bioavailability in rat at 1 mg/kg, iv or 2 mg/kg, po
# Format: ADME, organism-based
# Details: in vivo
row,bioavailability [%],Structure (SMILES)
1,3,C[C@@H](c1ccc(-c2cn(C)c(=O)cc2CO)cc1)[C@H](N)C(=O)N1CC[C@H](F)C1.O=C(O)C(F)(F)F
2,61,C[C@@H](c1ccc(-c2ccc(=O)n(C)c2F)cc1)[C@H](N)C(=O)N1CC[C@H](F)C1.O=C(O)C(F)(F)F
3,34,C[C@@H](c1ccc(-c2ccc(=O)n(C)c2)cc1)[C@H](N)C(=O)N1CC[C@H](F)C1.O=C(O)C(F)(F)F
4,10,C[C@@H](c1ccc(-c2ccc(O)nc2)cc1)[C@H](N)C(=O)N1CC[C@H](F)C1.O=C(O)C(F)(F)F

# Test system: not listed separately
# Assay: Plasma clearance in rhesus monkey at 1 mg/kg, iv or 2 mg/kg, po
# Format: ADME, organism-based, Macaca mulatta
# Details: not given
row,clearance [mL/min/kg],Structure (SMILES)
1,6.7,C[C@@H](c1ccc(-c2ccc(=O)n(C)c2)cc1)[C@H](N)C(=O)N1CC[C@H](F)C1.O=C(O)C(F)(F)F

# Test system: not listed separately
# Assay: Half life in dog at 1 mg/kg, iv or 2 mg/kg, po
# Format: ADME, organism-based, Canis lupus familiaris
# Details: in vivo
row,half-life [h],Structure (SMILES)
1,3.8,C[C@@H](c1ccc(-c2ccc(=O)n(C)c2)cc1)[C@H](N)C(=O)N1CC[C@H](F)C1.O=C(O)C(F)(F)F

# Test system: not listed separately
# Assay: Bioavailability in dog at 1 mg/kg, iv or 2 mg/kg, po
# Format: ADME, organism-based, Canis lupus familiaris
# Details: in vivo
row,bioavailability [%],Structure (SMILES)
1,95,C[C@@H](c1ccc(-c2ccc(=O)n(C)c2)cc1)[C@H](N)C(=O)N1CC[C@H](F)C1.O=C(O)C(F)(F)F

# Test system: not listed separately
# Assay: Half life in rhesus monkey at 1 mg/kg, iv or 2 mg/kg, po
# Format: ADME, organism-based, Macaca mulatta
# Details: in vivo
row,half-life [h],Structure (SMILES)
1,3.9,C[C@@H](c1ccc(-c2ccc(=O)n(C)c2)cc1)[C@H](N)C(=O)N1CC[C@H](F)C1.O=C(O)C(F)(F)F

# Test system: not listed separately
# Assay: Bioavailability in rhesus monkey at 1 mg/kg, iv or 2 mg/kg, po
# Format: ADME, organism-based, Macaca mulatta
# Details: in vivo
row,bioavailability [%],Structure (SMILES)
1,50,C[C@@H](c1ccc(-c2ccc(=O)n(C)c2)cc1)[C@H](N)C(=O)N1CC[C@H](F)C1.O=C(O)C(F)(F)F

# Target: Voltage-gated inwardly rectifying potassium channel KCNH2 (Homo sapiens, UniProt Q12809)
# Sequence (Q12809 whole entry): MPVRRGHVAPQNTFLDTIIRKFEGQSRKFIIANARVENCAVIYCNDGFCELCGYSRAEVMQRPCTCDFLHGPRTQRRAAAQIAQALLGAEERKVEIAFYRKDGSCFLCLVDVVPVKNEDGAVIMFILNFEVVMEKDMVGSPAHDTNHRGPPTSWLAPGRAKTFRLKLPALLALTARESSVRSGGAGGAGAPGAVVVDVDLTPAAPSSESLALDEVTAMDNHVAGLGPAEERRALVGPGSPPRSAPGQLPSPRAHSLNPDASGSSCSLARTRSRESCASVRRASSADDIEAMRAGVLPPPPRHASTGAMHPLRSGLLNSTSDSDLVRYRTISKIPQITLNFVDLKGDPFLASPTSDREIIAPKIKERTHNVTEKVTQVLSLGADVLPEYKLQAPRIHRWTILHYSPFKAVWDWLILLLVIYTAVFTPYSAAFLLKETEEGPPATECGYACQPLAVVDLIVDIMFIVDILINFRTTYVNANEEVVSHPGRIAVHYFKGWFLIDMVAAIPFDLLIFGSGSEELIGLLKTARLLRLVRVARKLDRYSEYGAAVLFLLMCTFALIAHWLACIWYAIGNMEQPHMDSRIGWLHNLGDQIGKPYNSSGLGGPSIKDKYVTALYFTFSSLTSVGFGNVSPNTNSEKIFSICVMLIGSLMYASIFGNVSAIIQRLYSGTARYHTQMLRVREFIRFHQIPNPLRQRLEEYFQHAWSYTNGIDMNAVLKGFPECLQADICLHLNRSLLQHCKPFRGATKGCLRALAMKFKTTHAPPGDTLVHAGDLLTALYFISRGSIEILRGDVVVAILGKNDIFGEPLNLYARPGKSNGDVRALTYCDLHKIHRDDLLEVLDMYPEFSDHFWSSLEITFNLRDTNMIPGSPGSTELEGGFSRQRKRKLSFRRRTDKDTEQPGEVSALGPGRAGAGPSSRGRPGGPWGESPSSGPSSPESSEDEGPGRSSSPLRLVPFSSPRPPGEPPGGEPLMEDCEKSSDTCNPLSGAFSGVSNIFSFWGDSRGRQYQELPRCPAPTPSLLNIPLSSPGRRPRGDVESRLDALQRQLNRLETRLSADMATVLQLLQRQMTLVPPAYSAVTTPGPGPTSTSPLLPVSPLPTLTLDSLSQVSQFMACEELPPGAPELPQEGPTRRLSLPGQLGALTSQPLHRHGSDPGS
# Assay: Binding to human ERG potassium channel
# Details: not given
row,Structure (SMILES),IC50 [µM]
1,C[C@@H](c1ccc(-c2ccc(O)nc2)cc1)[C@H](N)C(=O)N1CC[C@H](F)C1.O=C(O)C(F)(F)F,8.3

# Test system: Mus musculus
# Assay: Reduction of glucose excursion at 1 mg/kg, po in mouse by Oral Glucose Tolerance Test
# Format: functional
# Set-up: scale not given: the % may be the effect or the level left
# Details: not given
row,Structure (SMILES),Activity [%]
1,C[C@@H](c1ccc(-c2ccc(=O)n(C)c2)cc1)[C@H](N)C(=O)N1CC[C@H](F)C1.O=C(O)C(F)(F)F,33

# Test system: Mus musculus
# Assay: Reduction of glucose excursion at 10 mg/kg, po in mouse by Oral Glucose Tolerance Test
# Format: functional
# Set-up: scale not given: the % may be the effect or the level left
# Details: not given
row,Structure (SMILES),Activity [%]
1,C[C@@H](c1ccc(-c2ccc(=O)n(C)c2)cc1)[C@H](N)C(=O)N1CC[C@H](F)C1.O=C(O)C(F)(F)F,56

# Target: Dipeptidyl peptidase 2 (Homo sapiens, UniProt Q9UHL4)
# Assay: Inhibition of QPP
# Details: not given
row,IC50 [µM],Structure (SMILES)
1,> 100,C[C@@H](c1ccc(-c2cn(C)c(=O)cc2CO)cc1)[C@H](N)C(=O)N1CC[C@H](F)C1.O=C(O)C(F)(F)F

# Target: Dipeptidyl peptidase 8 (Homo sapiens, UniProt Q6V1X1)
# Sequence (Q6V1X1 whole entry): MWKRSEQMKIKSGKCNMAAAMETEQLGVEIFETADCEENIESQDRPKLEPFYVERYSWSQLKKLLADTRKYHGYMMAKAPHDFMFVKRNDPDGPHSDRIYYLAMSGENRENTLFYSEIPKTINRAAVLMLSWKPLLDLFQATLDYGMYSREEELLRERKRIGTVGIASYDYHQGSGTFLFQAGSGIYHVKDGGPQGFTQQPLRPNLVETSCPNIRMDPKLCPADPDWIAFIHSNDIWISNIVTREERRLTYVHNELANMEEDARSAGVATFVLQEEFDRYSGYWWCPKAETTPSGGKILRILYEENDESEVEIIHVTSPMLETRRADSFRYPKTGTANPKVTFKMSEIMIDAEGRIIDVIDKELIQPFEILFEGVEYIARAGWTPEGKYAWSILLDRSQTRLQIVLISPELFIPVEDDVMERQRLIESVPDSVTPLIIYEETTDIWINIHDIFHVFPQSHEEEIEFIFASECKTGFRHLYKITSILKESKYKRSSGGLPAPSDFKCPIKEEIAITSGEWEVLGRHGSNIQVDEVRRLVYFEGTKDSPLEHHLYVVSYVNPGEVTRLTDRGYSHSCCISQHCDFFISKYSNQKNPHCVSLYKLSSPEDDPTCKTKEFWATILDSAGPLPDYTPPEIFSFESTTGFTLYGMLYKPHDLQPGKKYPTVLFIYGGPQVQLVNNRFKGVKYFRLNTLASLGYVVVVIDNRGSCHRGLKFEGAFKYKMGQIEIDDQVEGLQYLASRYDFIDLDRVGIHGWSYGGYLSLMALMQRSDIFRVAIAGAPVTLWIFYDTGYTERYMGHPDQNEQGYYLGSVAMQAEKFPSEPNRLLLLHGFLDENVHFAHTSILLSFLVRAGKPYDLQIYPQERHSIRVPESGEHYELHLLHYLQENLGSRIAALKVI
# Details: not given
row,Structure (SMILES),IC50 [µM]
1,C[C@@H](c1ccc(-c2cn(C)c(=O)cc2CO)cc1)[C@H](N)C(=O)N1CC[C@H](F)C1.O=C(O)C(F)(F)F,> 100
2,C[C@@H](c1ccc(-c2cn(C)c(=O)c(Cl)c2F)cc1)[C@H](N)C(=O)N1CC[C@H](F)C1,> 100
3,Cc1c(-c2ccc([C@H](C)[C@H](N)C(=O)N3CC[C@H](F)C3)cc2)cc(Br)c(=O)n1C,> 100
4,C[C@@H](c1ccc(-c2ccc(=O)n(C)c2)cc1)[C@H](N)C(=O)N1CCCC1,> 100
5,C[C@@H](c1ccc(-c2ccc(=O)n(-c3ccc(F)cc3)c2)cc1)[C@H](N)C(=O)N1CC[C@H](F)C1,> 100
6,C[C@@H](c1ccc(-c2ccc(=O)n(C)c2)cc1)[C@H](N)C(=O)N1CCC(F)(F)C1,> 100
7,C[C@@H](c1ccc(-c2ccc(=O)n(C)c2)cc1)[C@H](N)C(=O)N1CCSC1,> 100
8,COc1cc(=O)n(C)cc1-c1ccc([C@H](C)[C@H](N)C(=O)N2CC[C@H](F)C2)cc1,> 100
9,C[C@@H](c1ccc(-c2cc(Br)c(=O)n(C)c2)cc1)[C@H](N)C(=O)N1CC[C@H](F)C1,> 100
10,C[C@@H](c1ccc(-c2cn(C)c(=O)cc2F)cc1)[C@H](N)C(=O)N1CC[C@H](F)C1,> 100
11,Cc1cc(=O)n(C)cc1-c1ccc([C@H](C)[C@H](N)C(=O)N2CC[C@H](F)C2)cc1,> 100
12,CCOC(=O)Nc1c(-c2ccc([C@H](C)[C@H](N)C(=O)N3CC[C@H](F)C3)cc2)cn(C)c(=O)c1F,> 100

# Further lines, results first:
row,IC50 [µM],Structure (SMILES)
1,> 100,C[C@@H](c1ccc(-c2ccc(=O)n(C)c2)cc1)[C@H](N)C(=O)N1CCC(F)CC1
2,> 100,C[C@@H](c1ccc(-c2ccc(=O)n(C)c2F)cc1)[C@H](N)C(=O)N1CC[C@H](F)C1.O=C(O)C(F)(F)F
3,> 100,Cc1c(-c2ccc([C@H](C)[C@H](N)C(=O)N3CC[C@H](F)C3)cc2)ccc(=O)n1C
4,> 100,C[C@@H](c1ccc(-c2ccc(=O)n(C)c2)cc1)[C@H](N)C(=O)N1CC[C@H](F)C1.O=C(O)C(F)(F)F
5,> 100,CCn1cc(-c2ccc([C@H](C)[C@H](N)C(=O)N3CC[C@H](F)C3)cc2)ccc1=O
6,> 100,C[C@@H](c1ccc(-c2ccc(=O)n(C)c2)cc1)[C@H](N)C(=O)N1CC(F)C1
7,> 100,C[C@@H](c1ccc(-c2ccc(O)nc2)cc1)[C@H](N)C(=O)N1CC[C@H](F)C1.O=C(O)C(F)(F)F
8,> 100,CCOC(=O)Cn1cc(-c2ccc([C@H](C)[C@H](N)C(=O)N3CC[C@H](F)C3)cc2)ccc1=O
9,> 100,C[C@@H](c1ccc(-c2ccc(=O)n(CC3CC3)c2)cc1)[C@H](N)C(=O)N1CC[C@H](F)C1
10,> 100,CCOC(=O)C(F)(F)n1cc(-c2ccc([C@H](C)[C@H](N)C(=O)N3CC[C@H](F)C3)cc2)ccc1=O

# Target: Dipeptidyl peptidase 9 (Homo sapiens, UniProt Q86TI2)
# Sequence (Q86TI2 whole entry): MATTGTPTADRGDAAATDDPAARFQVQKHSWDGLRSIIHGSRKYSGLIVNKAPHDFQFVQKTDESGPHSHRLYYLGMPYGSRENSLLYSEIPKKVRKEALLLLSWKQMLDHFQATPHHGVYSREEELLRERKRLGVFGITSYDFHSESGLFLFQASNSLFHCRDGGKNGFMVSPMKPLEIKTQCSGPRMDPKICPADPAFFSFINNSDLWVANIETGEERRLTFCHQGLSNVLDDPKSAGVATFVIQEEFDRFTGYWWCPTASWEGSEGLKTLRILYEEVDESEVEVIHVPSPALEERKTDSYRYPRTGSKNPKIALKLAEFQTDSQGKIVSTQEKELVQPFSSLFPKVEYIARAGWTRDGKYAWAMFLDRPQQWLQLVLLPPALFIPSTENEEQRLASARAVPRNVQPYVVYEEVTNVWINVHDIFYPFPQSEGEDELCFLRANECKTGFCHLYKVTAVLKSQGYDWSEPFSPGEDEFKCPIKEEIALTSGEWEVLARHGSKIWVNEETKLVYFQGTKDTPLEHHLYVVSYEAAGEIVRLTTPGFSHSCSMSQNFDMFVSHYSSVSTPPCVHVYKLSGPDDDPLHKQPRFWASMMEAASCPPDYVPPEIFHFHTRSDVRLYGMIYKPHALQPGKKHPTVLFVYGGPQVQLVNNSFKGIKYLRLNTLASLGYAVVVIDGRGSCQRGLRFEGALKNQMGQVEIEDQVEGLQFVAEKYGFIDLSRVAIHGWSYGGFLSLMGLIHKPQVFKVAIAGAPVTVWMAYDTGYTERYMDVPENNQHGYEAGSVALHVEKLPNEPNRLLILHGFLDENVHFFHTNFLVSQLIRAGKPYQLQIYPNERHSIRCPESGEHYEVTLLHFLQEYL
# Details: not given
row,Structure (SMILES),IC50 [µM]
1,C[C@@H](c1ccc(-c2cn(C)c(=O)cc2CO)cc1)[C@H](N)C(=O)N1CC[C@H](F)C1.O=C(O)C(F)(F)F,> 100
2,C[C@@H](c1ccc(-c2cn(C)c(=O)c(Cl)c2F)cc1)[C@H](N)C(=O)N1CC[C@H](F)C1,> 100
3,Cc1c(-c2ccc([C@H](C)[C@H](N)C(=O)N3CC[C@H](F)C3)cc2)cc(Br)c(=O)n1C,> 100
4,C[C@@H](c1ccc(-c2ccc(=O)n(C)c2)cc1)[C@H](N)C(=O)N1CCCC1,> 100
5,C[C@@H](c1ccc(-c2cc(F)c(=O)n(C)c2)cc1)[C@H](N)C(=O)N1CC[C@H](F)C1,> 100
6,C[C@@H](c1ccc(-c2ccc(=O)n(-c3ccc(F)cc3)c2)cc1)[C@H](N)C(=O)N1CC[C@H](F)C1,> 100
7,C[C@@H](c1ccc(-c2ccc(=O)n(C)c2)cc1)[C@H](N)C(=O)N1CCC(F)(F)C1,> 100
8,C[C@@H](c1ccc(-c2ccc(=O)n(C)c2)cc1)[C@H](N)C(=O)N1CCSC1,> 100
9,COc1cc(=O)n(C)cc1-c1ccc([C@H](C)[C@H](N)C(=O)N2CC[C@H](F)C2)cc1,> 100
10,C[C@@H](c1ccc(-c2cc(Br)c(=O)n(C)c2)cc1)[C@H](N)C(=O)N1CC[C@H](F)C1,> 100
11,C[C@@H](c1ccc(-c2cn(C)c(=O)cc2F)cc1)[C@H](N)C(=O)N1CC[C@H](F)C1,> 100
12,Cc1cc(=O)n(C)cc1-c1ccc([C@H](C)[C@H](N)C(=O)N2CC[C@H](F)C2)cc1,> 100

# Further lines, results first:
row,IC50 [µM],Structure (SMILES)
1,> 100,C[C@@H](c1ccc(-c2ccc(=O)n(C)c2)cc1)[C@H](N)C(=O)N1CCC(F)CC1
2,> 100,C[C@@H](c1ccc(-c2ccc(=O)n(C)c2F)cc1)[C@H](N)C(=O)N1CC[C@H](F)C1.O=C(O)C(F)(F)F
3,> 100,Cc1c(-c2ccc([C@H](C)[C@H](N)C(=O)N3CC[C@H](F)C3)cc2)ccc(=O)n1C
4,> 100,C[C@@H](c1ccc(-c2ccc(=O)n(C)c2)cc1)[C@H](N)C(=O)N1CC[C@H](F)C1.O=C(O)C(F)(F)F
5,> 100,CCn1cc(-c2ccc([C@H](C)[C@H](N)C(=O)N3CC[C@H](F)C3)cc2)ccc1=O
6,> 100,C[C@@H](c1ccc(-c2ccc(=O)n(C)c2)cc1)[C@H](N)C(=O)N1CC(F)C1
7,> 100,C[C@@H](c1ccc(-c2ccc(O)nc2)cc1)[C@H](N)C(=O)N1CC[C@H](F)C1.O=C(O)C(F)(F)F
8,> 100,CCOC(=O)Cn1cc(-c2ccc([C@H](C)[C@H](N)C(=O)N3CC[C@H](F)C3)cc2)ccc1=O
9,> 100,C[C@@H](c1ccc(-c2ccc(=O)n(CC3CC3)c2)cc1)[C@H](N)C(=O)N1CC[C@H](F)C1
10,> 100,CCOC(=O)C(F)(F)n1cc(-c2ccc([C@H](C)[C@H](N)C(=O)N3CC[C@H](F)C3)cc2)ccc1=O
